Experimental data from article PMC2375326, “In vitro evaluation of amino acid prodrugs of novel antitumour 2-(4-amino-3-methylphenyl)benzothiazoles” (British Journal of Cancer, 2002).

Legend:
[1] = system: CCRF-CEM; assay: NCI in vitro cytotoxicity assay (SRB), CCRF-CEM; format: cell-based; conditions: Homo sapiens, 48 h exposure, sulforhodamine B assay, mean graph, read-out: Log10 GI50 (CCRF-CEM) (converted)
Method: (§1) Cell culture and drug application procedures have been described previously ([Boyd and Paull, 1995]). Briefly, cell lines were inoculated into a series of 96-well microtiter plates, with varied seeding densities depending on growth characteristics of each cell line. Following a 24 h drug free incubation, test agents were added at five 10-fold dilutions with a maximum concentration of 100 μM. Cellular protein levels were determined after 48 h drug exposure by sulphorhodamine B colorimetry.

[2] = system: EKVX; assay: NCI in vitro cytotoxicity assay (SRB), EKVX; format: cell-based; conditions: Homo sapiens, 48 h exposure, sulforhodamine B assay, mean graph, read-out: Log10 GI50 (EKVX) (converted)
Method: as §1

[3] = system: NCI-H522; assay: NCI in vitro cytotoxicity assay (SRB), NCI-H522; format: cell-based; conditions: Homo sapiens, 48 h exposure, sulforhodamine B assay, mean graph, read-out: Log10 GI50 (NCI-H522) (converted)
Method: as §1

[4] = system: KM12; assay: NCI in vitro cytotoxicity assay (SRB), KM12; format: cell-based; conditions: Homo sapiens, 48 h exposure, sulforhodamine B assay, mean graph, read-out: Log10 GI50 (KM12) (converted)
Method: as §1

[5] = system: CAKI-1; assay: NCI in vitro cytotoxicity assay (SRB), CAKI-1; format: cell-based; conditions: Homo sapiens, 48 h exposure, sulforhodamine B assay, mean graph, read-out: Log10 GI50 (CAKI-1) (converted)
Method: as §1

[6] = system: CYP1A1 activity (EROD) in IGROV-1 cells; assay: EROD activity in homogenates of treated IGROV-1 cells; format: cell-based, human; conditions: IGROV-1 cells treated 24 h; biphasic dose response
Method: A sensitive and rapid fluorometric assay was used to measure EROD activity ([Burke et al, 1994]). Incubation mixtures (total 1 ml) consisted of 100 mM Tris-HCl (pH 7.4), 50 μM MgCl2, 100 μM 7-ethoxyresorufin and 100 μl cell homogenate. Homogenates were prepared following treatment of cells for 24 h with compounds 1, 2, 2a, 2b, 3, 3a, 3b, 4, 4a and 4b or vehicle alone and protein content determined (n=3). Thus induction of ethoxyresorufin O-deethylation by agents under study, catalysed by CYP1A1 activity, could be determined. Alternatively, microsomes expressing recombinant CYP1A1 (0.1 mg ml^−1) provided the enzyme source for EROD catalysis, in the presence or absence of drug, in order to determine inhibition of CYP1A1 activity by compounds 1, 2, 2a, 2b, 3, 3a, 3b, 4, 4a and 4b. Incubation mixtures were pre-incubated for 5 min at 37°C before initiation of reaction by addition of NADPH (500 μM). Following further incubations at 37°C (30 min for cell homogenates, 15 min for CYP1A1 microsomes), reactions were terminated by addition of 3 ml ice-cold acetonitrile. […] Fluorescence was read on a Perkin-Elmer LS-5 luminescence spectrometer (excitation, 530 nm; emission 585 nm). Estimation of resorufin reaction product (pmoles mg^−1 protein, pmoles 100 μg^−1 microsomes), as a measure of CYP1A1 activity, was determined following performance of a resorufin standard curve.

[7] = system: RPMI-8226; assay: NCI in vitro cytotoxicity assay (SRB), RPMI-8226; format: cell-based; conditions: Homo sapiens, 48 h exposure, sulforhodamine B assay, mean graph, read-out: Log10 GI50 (RPMI-8226) (converted)
Method: as §1

Row | Concentration giving maximum induction of EROD activity [6] [nM] | SMILES | GI50 [1] [µM] | GI50 [2] [µM] | GI50 [3] [µM] | GI50 [4] [µM] | GI50 [5] [µM] | GI50 [7] [µM]
1 |  | Cc1cc(-c2nc3cc(F)ccc3s2)ccc1N [Compound 2, 2-(4-Amino-3-methylphenyl)-5-fluorobenzothiazole] | 1.23 | 1.41 | 28.8 | 69.2 | 25.7 | 
2 | 1000 | Cc1cc(-c2nc3cc(F)ccc3s2)ccc1NC(=O)[C@@H](N)CCCCN [Compound 2b] |  |  |  |  |  | 2.45
